Converted amounts (≈) assume the structure as drawn.
How the values were obtained:
Type in all cases: cell-based
[1] = system: Mannheimia haemolytica MH 6357 (M7/2, reference strain, cattle infection strain); assay: MIC, broth-microdilution (CLSI VET01-A4), strain MH 6357; conditions: Mannheimia haemolytica strain MH 6357, broth-microdilution; unit assumed
Description: (§1) For example, representative compounds were tested against ***, Mannheimia haemolytica and Pasteurella multocida, using the conventional broth-dilution assay.
(§2) The Minimum inhibitory concentrations (MIC) of compounds according to the invention for a number of veterinary bacterial pathogens were determined by the broth-microdilution method according to CLSI document VET01-A4.
(§3) Microdilution trays containing a doubling dilution series of the test compound were used for the tests. The MIC results were interpreted according to the CLSI documents VET01-S3. The lowest concentration of compound at which no visible growth (i.e. no turbidity) detected by the unaided eye was recorded as the MIC.

[2] = system: Mannheimia haemolytica MH 12587 (1071, BRD field isolate, macrolide-resistance: erm+, E+); assay: MIC, broth-microdilution (CLSI VET01-A4), strain MH 12587; conditions: Mannheimia haemolytica strain MH 12587, broth-microdilution; unit assumed
Description: as §1, §2, §3

[3] = system: Mannheimia haemolytica MH 10720 (154, BRD field isolate); assay: MIC, broth-microdilution (CLSI VET01-A4), strain MH 10720; conditions: Mannheimia haemolytica strain MH 10720, broth-microdilution; unit assumed
Description: as §1, §2, §3

[4] = system: Mannheimia haemolytica MH 13065 (XB0446-6003.9, BRD field isolate); assay: MIC, broth-microdilution (CLSI VET01-A4), strain MH 13065; conditions: Mannheimia haemolytica strain MH 13065, broth-microdilution; unit assumed
Description: as §1, §2, §3

[5] = system: Pasteurella multocida PM 12080 (IV102277-0093, BRD field isolate); assay: MIC, broth-microdilution (CLSI VET01-A4), strain PM 12080; conditions: Pasteurella multocida strain PM 12080, broth-microdilution; unit assumed
Description: as §1, §2, §3

[6] = system: Mannheimia haemolytica MH 6374 (ATCC 33396, reference strain); assay: MIC, broth-microdilution (CLSI VET01-A4), strain MH 6374; conditions: Mannheimia haemolytica strain MH 6374, broth-microdilution; unit assumed
Description: as §1, §2, §3

[7] = system: Mannheimia haemolytica MH 13093 (XB0472-6014.1, BRD field isolate); assay: MIC, broth-microdilution (CLSI VET01-A4), strain MH 13093; conditions: Mannheimia haemolytica strain MH 13093, broth-microdilution; unit assumed
Description: as §1, §2, §3

[8] = system: Pasteurella multocida PM 6267 (P 2225 (L386), reference strain, mouse infection strain); assay: MIC, broth-microdilution (CLSI VET01-A4), strain PM 6267; conditions: Pasteurella multocida strain PM 6267, broth-microdilution; unit assumed
Description: as §1, §2, §3

[9] = system: Pasteurella multocida PM 10775 (080130003051, BRD field isolate); assay: MIC, broth-microdilution (CLSI VET01-A4), strain PM 10775; conditions: Pasteurella multocida strain PM 10775, broth-microdilution; unit assumed
Description: as §1, §2, §3

Row | SMILES | MIC MH 6357 [1] [µg/mL] | MIC MH 12587 [2] [µg/mL] | MIC MH 10720 [3] [µg/mL] | MIC MH 13065 [4] [µg/mL] | MIC PM 12080 [5] [µg/mL] | MIC MH 6374 [6] [µg/mL] | MIC MH 13093 [7] [µg/mL] | MIC PM 6267 [8] [µg/mL] | MIC PM 10775 [9] [µg/mL]
1 | CC(C)(C(NC(=O)c1ccc(C#Cc2ccc(CNC3CC3)cc2)cc1)C(=O)NO)[N+](=O)[O-] (racemic) [Compound 218] | 0.4 (≈ 0.888 µM) | 0.8 (≈ 1.78 µM) | ≤ 0.1 | 0.4 (≈ 0.888 µM) | ≤ 0.1 | 0.4 (≈ 0.888 µM) | 0.4 (≈ 0.888 µM) | 0.4 (≈ 0.888 µM) | –
2 | C=CCNCc1cccc(C#Cc2ccc(C(=O)N[C@H](C(=O)NO)C(C)C)cc2)c1 [Compound 26] | 12.5 (≈ 30.8 µM) | 25 (≈ 61.7 µM) | 3.1 (≈ 7.64 µM) | 12.5 (≈ 30.8 µM) | 6.3 (≈ 15.5 µM) | 6.3 (≈ 15.5 µM) | 12.5 (≈ 30.8 µM) | 3.1 (≈ 7.64 µM) | 0.8 (≈ 1.97 µM)
3 | CC(C)[C@H](NC(=O)c1ccc(C#Cc2cccc(CNCC(C)(C)C)c2)cc1)C(=O)NO [Compound 27] | 12.5 (≈ 28.7 µM) | 25 (≈ 57.4 µM) | 3.1 (≈ 7.12 µM) | 25 (≈ 57.4 µM) | 6.3 (≈ 14.5 µM) | 12.5 (≈ 28.7 µM) | 25 (≈ 57.4 µM) | 3.1 (≈ 7.12 µM) | 0.8 (≈ 1.84 µM)
4 | CC(C)[C@H](NC(=O)c1ccc(C#Cc2cccc(CN3CCOCC3)c2)cc1)C(=O)NO [Compound 32] | 6.3 (≈ 14.5 µM) | 12.5 (≈ 28.7 µM) | 3.1 (≈ 7.12 µM) | 6.3 (≈ 14.5 µM) | 3.1 (≈ 7.12 µM) | 6.3 (≈ 14.5 µM) | 6.3 (≈ 14.5 µM) | 1.6 (≈ 3.67 µM) | 0.4 (≈ 0.918 µM)
5 | CC(C)[C@H](NC(=O)c1ccc(C#Cc2cccc(CNCc3ccccc3)c2)cc1)C(=O)NO [Compound 40] | 6.3 (≈ 13.8 µM) | 12.5 (≈ 27.4 µM) | 6.3 (≈ 13.8 µM) | 6.3 (≈ 13.8 µM) | 6.3 (≈ 13.8 µM) | 3.1 (≈ 6.8 µM) | 6.3 (≈ 13.8 µM) | 3.1 (≈ 6.8 µM) | 0.8 (≈ 1.76 µM)
6 | COc1ccc(CNCc2cccc(C#Cc3ccc(C(=O)N[C@H](C(=O)NO)C(C)C)cc3)c2)cc1 [Compound 43] | 6.3 (≈ 13 µM) | 12.5 (≈ 25.7 µM) | 1.6 (≈ 3.3 µM) | 6.3 (≈ 13 µM) | 3.1 (≈ 6.38 µM) | 6.3 (≈ 13 µM) | 12.5 (≈ 25.7 µM) | 3.1 (≈ 6.38 µM) | 0.4 (≈ 0.824 µM)
7 | CC(C)[C@H](NC(=O)c1ccc(C#Cc2cccc(CNCc3ccncc3)c2)cc1)C(=O)NO [Compound 46] | 6.3 (≈ 13.8 µM) | 12.5 (≈ 27.4 µM) | 1.6 (≈ 3.5 µM) | 6.3 (≈ 13.8 µM) | 6.3 (≈ 13.8 µM) | 6.3 (≈ 13.8 µM) | 6.3 (≈ 13.8 µM) | 1.6 (≈ 3.5 µM) | 0.2 (≈ 0.438 µM)
8 | C=CCNCc1cccc(C#Cc2ccc(C(=O)N[C@H](C(=O)NO)[C@@H](C)CC)cc2)c1 [Compound 49] | 12.5 (≈ 29.8 µM) | 25 (≈ 59.6 µM) | 6.3 (≈ 15 µM) | 12.5 (≈ 29.8 µM) | 12.5 (≈ 29.8 µM) | 12.5 (≈ 29.8 µM) | 12.5 (≈ 29.8 µM) | 3.1 (≈ 7.39 µM) | 0.8 (≈ 1.91 µM)
9 | O=C(N[C@@H](CO)C(=O)NO)c1ccc(C#Cc2ccc(CNC3CC3)cc2)cc1 [Compound 71] | 1.6 (≈ 4.07 µM) | 1.6 (≈ 4.07 µM) | 0.4 (≈ 1.02 µM) | 0.8 (≈ 2.03 µM) | 0.4 (≈ 1.02 µM) | 0.8 (≈ 2.03 µM) | 3.1 (≈ 7.88 µM) | 0.2 (≈ 0.508 µM) | ≤ 0.1
10 | CC(C)NCc1ccc(C#Cc2ccc(C(=O)N[C@@H](CO)C(=O)NO)cc2)cc1 [Compound 72] | 12.5 (≈ 31.6 µM) | 25 (≈ 63.2 µM) | 6.3 (≈ 15.9 µM) | 12.5 (≈ 31.6 µM) | 12.5 (≈ 31.6 µM) | 12.5 (≈ 31.6 µM) | 12.5 (≈ 31.6 µM) | 1.6 (≈ 4.05 µM) | 0.8 (≈ 2.02 µM)
11 | C=CCNCc1ccc(C#Cc2ccc(C(=O)N[C@@H](CO)C(=O)NO)cc2)cc1 [Compound 73] | 3.1 (≈ 7.88 µM) | 6.3 (≈ 16 µM) | 3.1 (≈ 7.88 µM) | 3.1 (≈ 7.88 µM) | 1.6 (≈ 4.07 µM) | 3.1 (≈ 7.88 µM) | 3.1 (≈ 7.88 µM) | 0.4 (≈ 1.02 µM) | ≤ 0.1
12 | COCCNCc1ccc(C#Cc2ccc(C(=O)N[C@@H](CO)C(=O)NO)cc2)cc1 [Compound 74] | 3.1 (≈ 7.53 µM) | 12.5 (≈ 30.4 µM) | 3.1 (≈ 7.53 µM) | 6.3 (≈ 15.3 µM) | 3.1 (≈ 7.53 µM) | 3.1 (≈ 7.53 µM) | 12.5 (≈ 30.4 µM) | 0.8 (≈ 1.94 µM) | ≤ 0.1
13 | CCN(CC)Cc1ccc(C#Cc2ccc(C(=O)N[C@@H](CO)C(=O)NO)cc2)cc1 [Compound 76] | 12.5 (≈ 30.5 µM) | 25 (≈ 61.1 µM) | 6.3 (≈ 15.4 µM) | 12.5 (≈ 30.5 µM) | 3.1 (≈ 7.57 µM) | 25 (≈ 61.1 µM) | 25 (≈ 61.1 µM) | 0.4 (≈ 0.977 µM) | 0.2 (≈ 0.488 µM)
14 | O=C(N[C@@H](CO)C(=O)NO)c1ccc(C#Cc2ccc(CN3CCOCC3)cc2)cc1 [Compound 77] | 6.3 (≈ 14.9 µM) | 3.1 (≈ 7.32 µM) | 0.8 (≈ 1.89 µM) | 3.1 (≈ 7.32 µM) | 0.8 (≈ 1.89 µM) | 1.6 (≈ 3.78 µM) | 3.1 (≈ 7.32 µM) | ≤ 0.1 | ≤ 0.1
15 | O=C(N[C@@H](CO)C(=O)NO)c1ccc(C#Cc2ccc(CN3CCS(=O)(=O)CC3)cc2)cc1 [Compound 78] | 6.3 (≈ 13.4 µM) | 12.5 (≈ 26.5 µM) | 3.1 (≈ 6.57 µM) | 6.3 (≈ 13.4 µM) | 0.8 (≈ 1.7 µM) | 6.3 (≈ 13.4 µM) | 6.3 (≈ 13.4 µM) | ≤ 0.1 | ≤ 0.1
16 | CC(C)(C)C1CCN(Cc2ccc(C#Cc3ccc(C(=O)N[C@@H](CO)C(=O)NO)cc3)cc2)CC1 [Compound 79] | 12.5 (≈ 26.2 µM) | 25 (≈ 52.3 µM) | 3.1 (≈ 6.49 µM) | 12.5 (≈ 26.2 µM) | 1.6 (≈ 3.35 µM) | 25 (≈ 52.3 µM) | 25 (≈ 52.3 µM) | 0.4 (≈ 0.838 µM) | ≤ 0.1
17 | O=C(N[C@@H](CO)C(=O)NO)c1ccc(C#Cc2ccc(CN3CCC(c4ccccc4)CC3)cc2)cc1 [Compound 80] | 1.6 (≈ 3.22 µM) | 3.1 (≈ 6.23 µM) | 0.8 (≈ 1.61 µM) | 1.6 (≈ 3.22 µM) | 0.8 (≈ 1.61 µM) | 1.6 (≈ 3.22 µM) | 6.3 (≈ 12.7 µM) | ≤ 0.1 | ≤ 0.1
18 | O=C(N[C@@H](CO)C(=O)NO)c1ccc(C#Cc2ccc(CN3CCN(c4ccccc4)CC3)cc2)cc1 [Compound 81] | 3.1 (≈ 6.22 µM) | 25 (≈ 50.1 µM) | 0.8 (≈ 1.6 µM) | 3.1 (≈ 6.22 µM) | 0.8 (≈ 1.6 µM) | 3.1 (≈ 6.22 µM) | 6.3 (≈ 12.6 µM) | ≤ 0.1 | ≤ 0.1
19 | O=C(N[C@@H](CO)C(=O)NO)c1ccc(C#Cc2ccc(CN3CCN(c4ccccn4)CC3)cc2)cc1 [Compound 82] | 1.6 (≈ 3.2 µM) | 3.1 (≈ 6.21 µM) | 0.4 (≈ 0.801 µM) | 6.3 (≈ 12.6 µM) | 0.8 (≈ 1.6 µM) | 0.8 (≈ 1.6 µM) | 3.1 (≈ 6.21 µM) | ≤ 0.1 | ≤ 0.1
20 | CC[C@H](C)[C@H](NC(=O)c1ccc(C#Cc2ccc(CNCc3ccc(C)cc3)cc2)cc1)C(=O)NO [Compound 189] | 1.6 (≈ 3.31 µM) | 3.1 (≈ 6.41 µM) | – | 1.6 (≈ 3.31 µM) | 0.4 (≈ 0.827 µM) | 3.1 (≈ 6.41 µM) | 3.1 (≈ 6.41 µM) | 0.2 (≈ 0.414 µM) | ≤ 0.1
